Measurements from ChEMBL document CHEMBL1145565, “Synthesis, biological evaluation and radiochemical labeling of a dansylhydrazone derivative as a potential imaging agent for apoptosis” (2008).
Calls of active or inactive are those of the source. No cut-off for these calls is given here.

Legend:
MCF7 [1] = assay: Effect on drug uptake in cytoplasm of paclitaxel-treated human MCF7 apoptotic cells; assay type: functional, cell-based
K562 = assay: Effect on drug-uptake in imatinib-induced human K562 apoptotic cells; assay type: functional, cell-based
HT-29 = assay: Effect on drug-uptake in imatinib-induced human HT29 apoptotic cells; assay type: functional, cell-based
MCF7 [2] = assay: Induction of apoptosis in human MCF7 cells assessed as morphology at 50 nM after 16 hrs; assay type: functional

Structure (SMILES)	Activity (MCF7 [1])	Activity (K562)	Activity (HT-29)	Activity (MCF7 [2]) [%]
CN(C)c1cccc2c(S(=O)(=O)N/N=C\c3ccc(F)cc3)cccc12	Active	–	–	–
CN(C)c1cccc2c(S(=O)(=O)N/N=C/c3ccc([N+](=O)[O-])cc3)cccc12	–	Active	Active	–
CN(C)c1cccc2c(S(=O)(=O)N/N=C/c3ccc(I)cc3)cccc12	–	Active	Active	–
CC(=O)O[C@H]1C(=O)[C@@]2(C)[C@H]([C@H](OC(=O)c3ccccc3)[C@]3(O)C[C@H](OC(=O)[C@H](O)[C@@H](NC(=O)c4ccccc4)c4ccccc4)C(C)=C1C3(C)C)[C@]1(OC(C)=O)CO[C@@H]1C[C@@H]2O [PACLITAXEL]	–	–	–	30
CN(C)c1ccc(/C=N/NS(=O)(=O)c2cccc3c(N(C)C)cccc23)cc1	–	Active	Active	–
Cc1cc(=O)cc2c3c1[C@@H]1O[C@H]4[C@@H]5OC(=O)[C@](CC2)([C@@H]4C)[C@H]3[C@@H]51	–	Active	Active	–
